Data published in PMC10578927, “An unconventional gatekeeper mutation sensitizes inositol hexakisphosphate kinases to an allosteric inhibitor” (eLife, 2023).
Residue numbers refer to the chain shown, from its start. Where two headings read alike, the source gives them in different places.

What was measured:
[1] = target: T1, IP6KA^wt (Entamoeba histolytica, UniProt N9UNA8); test: NMR activity assay for EhIP6KA constructs; format: biochemical
T1 sequence (N9UNA8 1-270): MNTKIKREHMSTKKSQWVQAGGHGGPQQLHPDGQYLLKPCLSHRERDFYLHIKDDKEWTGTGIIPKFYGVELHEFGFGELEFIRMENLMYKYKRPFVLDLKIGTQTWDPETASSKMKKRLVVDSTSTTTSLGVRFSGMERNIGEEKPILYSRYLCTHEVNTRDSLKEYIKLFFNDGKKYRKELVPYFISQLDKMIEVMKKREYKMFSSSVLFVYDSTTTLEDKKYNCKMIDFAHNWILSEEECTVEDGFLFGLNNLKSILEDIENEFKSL
Experimental: The NMR assay for EhIP6KA activity was performed similarly as described before ([Harmel et al., 2019]) with slight alterations. Enzyme assays were performed in D2O in a total volume of 150 µl containing 20 mM MES pH* 6.4, 50 mM NaCl, 6 mM MgCl2, 1 mM ATP, 0.2 mg/ml BSA, 1 mM DTT, 5 mM creatine phosphate, and 1 U/ml creatine kinase (ATP-regenerating system) and 50 nM kinase if not otherwise stated. MES, NaCl, and BSA were prepared as buffer A and DTT and creatine phosphate as buffer B in D2O and were adjusted to pH* 6.4, respectively. If applicable, inhibitor was added as a DMSO-d6 stock in a twofold dilution series at a final DMSO concentration of 1% if not otherwise mentioned. Otherwise, DMSO-d6 was added to the same percentage. The samples were equilibrated at 37°C for 3 min and the reaction initiated by adding 100 µM [^13C6]-InsP6. The reaction was quenched with 400 µl quenching solution (20 mM EDTA pD 6.0, 68.75 mM NaCl) and transferred into an NMR tube before being measured on a Bruker […] 600 PLUS with an NMR pulse program developed previously ([Harmel et al., 2019]).

[2] = target: T2, IP6K2^L206V (Homo sapiens, UniProt Q9UHH9, L206V); test: NMR activity assay, [13C6]-InsP6 to 5PP-InsP5; format: biochemical
T2 construct: made in house; host or cells: E. coli Arctic Express
T2 sequence (Q9UHH9 1-426 L206V): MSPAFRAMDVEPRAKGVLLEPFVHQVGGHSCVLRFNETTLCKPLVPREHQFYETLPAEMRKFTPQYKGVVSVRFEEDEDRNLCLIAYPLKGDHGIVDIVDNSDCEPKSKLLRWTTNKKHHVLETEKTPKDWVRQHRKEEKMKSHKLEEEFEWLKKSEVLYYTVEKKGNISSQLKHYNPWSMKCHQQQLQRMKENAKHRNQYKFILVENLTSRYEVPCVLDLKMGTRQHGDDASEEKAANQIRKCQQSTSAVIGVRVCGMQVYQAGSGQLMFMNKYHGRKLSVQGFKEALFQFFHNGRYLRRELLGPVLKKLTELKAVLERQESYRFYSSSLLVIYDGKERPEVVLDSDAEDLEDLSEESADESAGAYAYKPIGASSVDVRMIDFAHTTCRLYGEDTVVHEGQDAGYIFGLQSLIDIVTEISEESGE
Experimental: (§1) The NMR assay for IP6K activity was performed similarly as described before ([Harmel et al., 2019]) with slight alterations. Enzyme assays were performed in D2O in a total volume of 150 µl containing 20 mM 4-(2-hydroxyethyl)-1-piperazineethanesulfonic acid (HEPES) pH* 6.8, 50 mM NaCl, 6 mM MgCl2, 1 mM ATP, 0.2 mg/ml BSA, 1 mM DTT, 5 mM creatine phosphate and 1 U/ml creatine kinase (ATP-regenerating system) and 50 nM kinase if not otherwise stated. HEPES, NaCl, and BSA were prepared as buffer A and DTT and creatine phosphate as buffer B in D2O and were adjusted to pH* 6.8, respectively. If applicable, inhibitor was added as a DMSO-d6 stock in a twofold dilution series at a final DMSO concentration of 1% if not otherwise mentioned. Otherwise, DMSO-d6 was added to the same percentage. The samples were equilibrated at 37°C for 3 min and the reaction initiated by adding 100 µM [^13C6]-InsP6.

[3] = target: T3, IP6K2^wt (Homo sapiens, UniProt Q9UHH9); test: NMR activity assay, [13C6]-InsP6 to 5PP-InsP5; format: biochemical
T3 construct: made in house; host or cells: E. coli Arctic Express
T3 sequence (Q9UHH9 1-426): T2 sequence (Q9UHH9 1-426 L206V) with V206L
Experimental: as §1

[4] = system: HEK293; test: Cytotoxicity, cell survival after 72 hr incubation; format: cell-based; details: HEK293, 10 µM
Experimental: (§2) Supplementary file elife-88982-supp2.xlsx: Supplementary file 2. Cytotoxicity of selected hits indicated by cell survival after 72 hr incubation at 10 µM concentration. All compounds were measured in independent triplicates and errors represent standard deviation. Redox activity of selected compounds measured via a photometric surrogate assay. Reactions contained 50 mM HEPES pH 7.5, 50 mM NaCl, 200 mM DTT, and 20 µM resazurin, and were incubated for 1 hr at 37°C.

[5] = system: HepG2; test: Cytotoxicity, cell survival after 72 hr incubation; format: cell-based; details: HepG2, 10 µM
Experimental: as §2

[6] = system: HCT116 cells; test: Reverse transcription qPCR of 45S pre-rRNA transcript levels; format: cell-based; details: HCT116 cells treated 5 hr, RT-qPCR, preliminary experiment
Experimental: Total RNA was extracted using the RNeasy kit from QIAGEN. cDNA was generated using Thermo Fisher Scientific SuperScript III Reverse Transcriptase and 2 µg RNA following the vendor’s protocol. […] The cDNA was diluted 10-fold before conducting qPCR using SYBR Green PCR Master Mix and a StepOnePlus RT PCR System. The difference in transcript levels was calculated using the ΔΔct method and technical triplicates.

For `O=C(O)c1ccc2c(c1)C(=O)N(c1ccc(-c3nc4ccc(N5C(=O)c6ccc(C(=O)O)cc6C5=O)cc4[nH]3)cc1)C2=O` [FMP-201300], the IC50 [1] was 5.82 µM, the IC50 ([2]; NMR assay) was 0.186 µM and the “times more potent against IP6K2^L206V compared to IP6K2^wt” value ([2]; ratio of IC50 values) was 11. For the same compound, the IC50 [3] was 2.14 µM, the IC50 ([3]; Figure 4b) was 2.14 µM and the cytotoxic [4] was “nor cytotoxic”. For the same compound, the “Cell number (%)” value ([4]; 72 hr incubation) was 100.1 ± 4.1%, the cytotoxic [5] was “nor cytotoxic” and the “Cell number (%)” value ([5]; 72 hr incubation) was 99.1 ± 2.8%. For the same compound, the “reduction of ribosomal RNA synthesis (45S pre-rRNA transcript levels)” value [6] was “able to recapitulate this recently reported phenotype”.
